Data set [1] concerns bile flow and biliary salt. Description: Cholagogic action: bile flow and excretion of biliary salt. Format: in vivo, male rat (4 week-aged, SD-JCL strain). The following applies: 200 mg/kg oral; for bile flow / excretion of biliary salt: before treatment = 100. The protocol:
The male rat (4 week-aged, SD-JCL strain) was anesthetized with sodium pentobarbital (37.5 mg/kg, intraperitoneal injection). The abdominal cavity was opened through a midline incision. The common bile duct was catheterized with polyethylene tube o.d. 0.8 mm. The catheter was brought to the outside through the abdominal incision wound prior to closing. Bile was collected from the catheter continuously with time intervals of one hour. The quantity of bile produced in one hour was determined by weighing and that of biliary salt was determined by enzymatic method (Ikagaku Jikkenho Koza 1B, Biological Constituents II, edited by Tamio YAMAKAWA). The amount of biliary salts was represented as cholic acid equivalent.
In the representation of the results, the quantities of bile and biliary salts produced in one hour prior to the administration of drug were taken as 100. The compound of this invention was orally administered at the dose of 200 mg/kg. As reference anethol trithion was used.

For data set [2], the system named is acute liver damage associated with discrete lobular necrosis (D-galactosamine). Description: Protective effect on acute hepatitis with mesenchymal reaction and discrete lobular necrosis (D-galactosamine model). It counts as in vivo, male rat (SD strain). The conditions noted are these: 100 mg/kg oral 6 h before D-galactosamine. The protocol: D-Galactosamine is a compound which induces a discrete lobular necrosis associated with mesenchymal reaction similar to the change observed in human viral hepatitis, so that it is frequently used in producing a model for viral hepatitis.
The compound of this invention or anethol trithion was administered orally to the male rat (SD strain) at the dose of 100 mg/kg. Six hours after it, D-galacetosamine was intraperitoneally administered at the dose of 600 mg/kg. Four hours after it, an additional 300 mg/kg was administered intraperitoneally. Eight hours after it, the animals were sacrificed to collect the blood samples. P-GPT activity and triglyceride in the liver were measured to evaluate the effect of the compound of this invention.

The subject of data set [3] is Acute Liver Damage associated with Centrilobular Necrosis (carbon tetrachloride). Description: Protective effect on acute liver damage associated with centrilobular necrosis (carbon tetrachloride model). The following applies: 250 mg/kg oral 6 h before CCl4, average of 5 to 6 mice; for p-GPT (plasma glutamic-pyruvic transaminase activity): 24 h after CCl4, values over 1,000 regarded as 1,000; for Liver Damage Index: 0 normal, 2 slightly recognized, 4 clearly observable damage, 6 heavy damage. Format: in vivo, mice (four-week-old male, dd strain). From the text:
Carbon tetrachloride (CCl4) administration induces centrilobular necrosis of the liver associated with loss of diphosphopyridine nucleotide, hepatic glycogen, coenzyme A and increase in neutral fat. Release of several enzymes from the hepatocytes, and increases of enzyme activities in the plasma are recognized as the result of the damage of the liver. A suitable means for evaluating the degree of damage induced by CCl4 or the degree of protection afforded by drugs is to study the plasma glutamic-pyruvic transaminase (p-GPT) activity.
Method: The test compounds were dissolved or suspended in olive oil and administered orally at the dose of 250 mg/kg to the mice (Four-week-old male mice-dd strain). After 6 hours, CCl4 was administered orally (0.05 ml/kg as olive oil solution). Animals were killed 24 hours after CCl4 administration, and the liver was grossly observed. The plasma was obtained by centrifugation. Activities of p-GPT were determined by the method of Reitman and Frankel and expressed in Karmen units.
Score for liver damage was as follows: […]
4 Clearly observable damage
Each figure indicates average of 5 to 6 mice. Values of p-GPT over 1,000 Karmen unit regarded as 1,000 for calculation of average for convenience.

Data set [4] concerns Chronic Liver Damage (thioacetamide). Description: Therapeutic effect on chronic liver damage (thioacetamide model), BSP test. Format: in vivo, rats (Sprague Dawley strain). The conditions noted are these: 12 times TAA 100 mg/kg, then diet + 0.2% compound. The protocol:
In the tests of this Example, TAA was repeatedly administered to animals to prepare test animals suffering from somewhat chronic liver damages, and then the present compounds were administered thereto to know whether or not the compounds were effective against chronic hepatitis.
The degree of the liver damage and the therapeutic effects of the compounds were evaluated according to BSP test. The BSP test is a method in which BSP (sulfobromophthalein sodium), a dye known to be quickly metabolized in and excreted from the liver, is intravenously injected into animals and, after a definite period of time, the blood is taken out to measure the amount of BSP remaining in the plasma. In case the animals are suffering from the liver damage, the dye will remain, according to the degree of the damage, at the stage where a major portion of BSP is metabolized and excreted in the case of normal animals.
Five groups of rats (Sprague Dawley strain) were treated as follows:
Group A: The rats were orally administered with 100 mg/kg of thioacetamide,at 3 days intervals for 36 days (12 times of the administration), then were submitted for 10 days to a normal diet.
Group B: The rats were orally administered with 100 mg/kg of thioacetamide at 3 days intervals for 36 days (12 times of the administration), then were submitted for 10 days to the normal diet + 0.2% of compound 4.
Group C: The rats were orally administered with 100 mg/kg of thioacetamide at 3 days intervals for 36 days (12 times of the administration) then were submitted for 10 days to the normal diet + 0.2% of compound 2.
Group D: The rats were orally administered with 100 mg/kg of thioacetamide at 3 days intervals for 36 days (12 times of the administration) then were submitted for 10 days to the normal diet + 0.2% of anethol trithion.
Group E: The rats were submitted to the normal diet as the control.
Five rats were sacrified from each group at appropriate intervals for BSP (sulfobromophthalein) test, the results of which were shown as amounts (mg) of BSP remaining in 1 dl of plasma.

In data set [5] the test system is acute liver damage associated with periportal necrosis (allyl alcohol). Description: Protective effect on acute liver damage associated with periportal necrosis (allyl alcohol model), BSP test. It counts as in vivo, male mouse (4 week-old dd-strain). The following applies: 100 mg/kg oral 6 h before allyl alcohol 0.075 ml/kg; 24 h after. The protocol:
The compound of this invention or anethol trithion was orally administered to the male mouse (4 week-old dd-strain) at the dose of 100 mg/kg. Six hours after it, allyl alcohol was orally administered at the dose of 0.075 ml/kg. Twenty four hours after it, the animals were sacrificed to collect blood samples. The residual quantity of BSP was measured by BSP test, from which the protective effect of the compound of this invention was evaluated.

A short description of the next data set: in vivo. The following applies: mouse, po.
Data set [6] can be described thus: Effect on concentration of ethyl alcohol in the blood. Format: in vivo, mice. The conditions noted are these: 250 mg/kg oral 6 h before ethyl alcohol 1,000 mg/kg. The protocol:
The test compounds are dissolved or suspended in olive oil and administered orally at the dose of 250 mg/kg to the mice. After 6 hours, 1,000 mg/kg of ethyl alcohol was given orally. Blood was taken in a capillary from caudal vein at the time indicated in the results. The plasma was obtained by centrifugation. The concentration of ethyl alcohol in the plasma was measured by FID type gas liquid chromatography. Five mice were used for each group.

Data on two compounds can be found in US4080467A, “Pharmaceutical compositions comprising 1,3-dithiolan-2-ylidene malonate derivatives” (Nihon Nohyaku Co., Ltd., priority 1976, dated 1978).

For `COc1ccc(-c2cc(=S)ss2)cc1` [Anethol trithion, anethol trithion, reference compound], the bile flow in data set [1] (1 hour after treatment) is recorded as 114±15; in data set [1] (2 hours after treatment), 114±15; in data set [1] (3 hours after treatment), 102±11; in data set [1] (4 hours after treatment) it was 95±7.7; in data set [1] (5 hours after treatment), 86±6.6. The “excretion of biliary salt” value is on record as 108±12 in data set [1] (1 hour after treatment); 89±11 in data set [1] (2 hours after treatment); 66±3.8 in data set [1] (3 hours after treatment); 47±3.0 in data set [1] (4 hours after treatment); 3.3±4.0 in data set [1] (5 hours after treatment). In data set [1] (versus control), the “Quantity of total excreted bile for 5 hours relative to control” value came out at 1.10 times. The compound further gave a Triglyceride in liver in data set [2] of 9.2 ± 1.5 mg/g. Besides, the p-GPT in data set [2] came out at 106±30 Karmen unit. Moreover, the “p-GPT (plasma glutamic-pyruvic transaminase activity)” value in data set [3] stood at 38 Karmen units. The “Liver Damage Index” value in data set [3] is listed as 1.6. Also, the results for the “Concentration of BSP in plasma” value in data set [4] (2 Days), in data set [4] (5 Days) and in data set [4] (10 Days) were 9.7 ± 4.1 mg/dL, 7.3 ± 3.4 mg/dL and 0.9 ± 0.1 mg/dL, respectively. Besides, the “Index of hepatotoxicity: BSP (residual quantity of BSP)” value in data set [5] is on record as 19.3±4.6.

Regarding `CCOC(=O)C(C(=O)OCC)=C1SCCS1` [Compound 2, Diethyl 1,3-dithiolan-2-ylidene malonate], the LD50 – broadly, the dose at which mortality reaches 50% – in the data set “in vivo” amounted to 1110 mg/kg. Further, the “Concentration of Ethyl alcohol in Plasma” value is 8±3 ppm in data set [6] (0 min); 712±75 ppm in data set [6] (5 min); 65±98 ppm in data set [6] (15 min); 422±100 ppm in data set [6] (30 min); 15±8 ppm in data set [6] (60 min). Moreover, the bile flow in data set [1] (1 hour after treatment) was determined as 108±3.8; in data set [1] (2 hours after treatment) it was 116±6.2; in data set [1] (3 hours after treatment) it was 109±8.3; in data set [1] (4 hours after treatment), 108±8.5; in data set [1] (5 hours after treatment), 98±3.8. In addition, the “excretion of biliary salt” value in data set [1] (1 hour after treatment) is 108±18; in data set [1] (2 hours after treatment), 120±12; in data set [1] (3 hours after treatment), 133±18; in data set [1] (4 hours after treatment), 120±21; in data set [1] (5 hours after treatment), 86±8.9. In addition, the “Amount of total biliary salts excreted for 5 hours relative to control” value in data set [1] (versus control) stood at 1.63 times. For the same compound, the “Quantity of total excreted bile for 5 hours relative to control” value in data set [1] (versus control) is reported as 1.15 times. Besides, in data set [2], the Triglyceride in liver amounted to 7.2 ± 1.5 mg/g. Moreover, the p-GPT in data set [2] is 68±32 Karmen unit. In data set [3], the “p-GPT (plasma glutamic-pyruvic transaminase activity)” value was determined as 47 Karmen units. Also, the “Liver Damage Index” value in data set [3] is 0.8. Further, the “Concentration of BSP in plasma” value in data set [4] (2 Days) is 9.8 ± 3.1 mg/dL; in data set [4] (5 Days), 4.7 ± 0.8 mg/dL; in data set [4] (10 Days), 0.8 ± 0.2 mg/dL.
